In ChEMBL document CHEMBL5241122, “A concise review on marine bromopyrrole alkaloids as anticancer agents” (Bioorg Med Chem Lett, 2023):
pEC50, pIC50: −log10 of the molar value. Each block holds one compound with its values, some of them ahead of it. Where a SMILES comes first, the peptide text is derived from it. [ ]: non-standard residue; d: D form. The star is where a group is joined. X1 = Cn1c(Br)c(Br)c(Br)c1C(=O)*; NMeL = CN[C@@H](CC(C)C)C(=O)O

How the values were obtained:
P388 = experiment: Cytotoxicity against mouse P388 cells; type: functional, cell-based
MCF7 = experiment: Cytotoxicity against human MCF7 cells by MTT assay; type: functional, cell-based
WRL68 = experiment: Cytotoxicity against human WRL68 cells by MTT assay; type: functional, cell-based
Caco-2 = experiment: Cytotoxicity against human Caco-2 cells by MTT assay; type: functional, cell-based
[1] = Inhibition of CK1gamma (unknown origin); set-up: species or system Homo sapiens
[2] = target: Cyclin-dependent kinase 5/CDK5 activator 1 (Homo sapiens, UniProt Q00535); experiment: Inhibition of CDK5/p25 (unknown origin); type: protein-complex assay
Sequence of Cyclin-dependent kinase 5/CDK5 activator 1 (Q00535 whole entry): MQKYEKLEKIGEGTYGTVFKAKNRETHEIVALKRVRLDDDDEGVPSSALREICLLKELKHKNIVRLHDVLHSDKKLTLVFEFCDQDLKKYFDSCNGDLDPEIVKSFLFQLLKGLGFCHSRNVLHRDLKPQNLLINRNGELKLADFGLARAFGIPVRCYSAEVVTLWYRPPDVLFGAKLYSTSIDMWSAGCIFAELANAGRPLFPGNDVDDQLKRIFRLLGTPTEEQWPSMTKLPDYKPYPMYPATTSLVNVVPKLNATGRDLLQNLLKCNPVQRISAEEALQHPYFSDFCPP
Sequence of Cyclin-dependent kinase 5/CDK5 activator 1 (Q15078 whole entry, further chain): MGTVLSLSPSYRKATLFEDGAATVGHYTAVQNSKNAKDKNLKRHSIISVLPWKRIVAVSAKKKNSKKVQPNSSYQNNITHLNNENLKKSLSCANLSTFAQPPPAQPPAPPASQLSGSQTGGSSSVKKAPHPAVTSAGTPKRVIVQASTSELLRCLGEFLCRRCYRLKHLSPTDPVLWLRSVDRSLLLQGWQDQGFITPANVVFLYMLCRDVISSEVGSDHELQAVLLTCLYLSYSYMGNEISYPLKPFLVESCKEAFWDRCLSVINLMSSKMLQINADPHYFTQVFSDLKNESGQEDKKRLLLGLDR

SW-620 = experiment: Cytotoxicity against human SW620 cells assessed as cell growth inhibition; type: functional, cell-based
KB 3-1 = experiment: Cytotoxicity against human KB-3-1 cells assessed as cell growth inhibition; type: functional, cell-based
KB = experiment: Cytotoxicity against human KB cells; type: functional, cell-based
K562 [3] = experiment: Cytotoxicity against human K562 cells; type: functional, cell-based
L1210 = experiment: Cytotoxicity against mouse L1210 cells; type: functional, cell-based
[4] = target: E3 ubiquitin-protein ligase CBL-B (Homo sapiens, UniProt Q13191); experiment: Inhibition of Cbl-b (unknown origin) assessed as inhibition of Cbl-b dependent ubiquitination in presence of ATP measured after 13 hrs by fluorescence microplate reader assay
Sequence of E3 ubiquitin-protein ligase CBL-B (Q13191 whole entry): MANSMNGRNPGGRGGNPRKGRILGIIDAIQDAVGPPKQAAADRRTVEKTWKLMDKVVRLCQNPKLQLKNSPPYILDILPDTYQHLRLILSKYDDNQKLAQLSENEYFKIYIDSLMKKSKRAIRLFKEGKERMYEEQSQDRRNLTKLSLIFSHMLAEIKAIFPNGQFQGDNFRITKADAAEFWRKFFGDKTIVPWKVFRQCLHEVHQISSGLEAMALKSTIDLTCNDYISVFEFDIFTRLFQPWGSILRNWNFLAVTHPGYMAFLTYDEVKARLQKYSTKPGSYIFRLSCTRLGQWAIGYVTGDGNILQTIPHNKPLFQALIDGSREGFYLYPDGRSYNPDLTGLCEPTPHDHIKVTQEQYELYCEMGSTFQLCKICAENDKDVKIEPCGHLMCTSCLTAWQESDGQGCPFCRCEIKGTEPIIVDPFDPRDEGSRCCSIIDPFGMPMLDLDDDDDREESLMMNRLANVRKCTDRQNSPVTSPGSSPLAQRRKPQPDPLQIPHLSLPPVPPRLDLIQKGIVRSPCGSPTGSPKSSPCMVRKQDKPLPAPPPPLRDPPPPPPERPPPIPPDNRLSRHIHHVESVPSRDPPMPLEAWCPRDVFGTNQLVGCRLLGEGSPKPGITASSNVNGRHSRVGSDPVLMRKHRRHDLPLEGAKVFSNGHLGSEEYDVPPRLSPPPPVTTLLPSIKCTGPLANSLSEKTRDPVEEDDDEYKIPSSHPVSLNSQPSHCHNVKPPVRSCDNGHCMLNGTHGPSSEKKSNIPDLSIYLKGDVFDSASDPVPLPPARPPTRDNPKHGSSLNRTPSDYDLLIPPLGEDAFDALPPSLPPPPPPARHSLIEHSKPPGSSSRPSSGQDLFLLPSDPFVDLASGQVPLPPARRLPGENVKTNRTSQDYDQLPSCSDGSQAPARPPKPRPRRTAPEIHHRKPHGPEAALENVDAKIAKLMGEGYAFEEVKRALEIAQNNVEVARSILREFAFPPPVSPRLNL

K562 [5] = experiment: Cytotoxicity against human K562 cells by MTT assay; type: functional, cell-based
L02 = experiment: Cytotoxicity against human L02 cells by MTT assay; type: functional, cell-based
[6] = Displacement of [125I]-somatostatin from somatostatin (unknown origin) incubated for 60 mins by gamma scintillation counter analysis; set-up: species or system Homo sapiens
VIP peptides = VIP peptides (Homo sapiens, UniProt P01282); experiment: Displacement of [125I]-VIP from Vasoactive intestinal peptide (unknown origin) incubated for 120 mins by gamma scintillation counter analysis
Sequence of VIP peptides (P01282 125-152 limits assumed): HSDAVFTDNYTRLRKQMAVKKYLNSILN

MDA-MB-231 = experiment: Cytotoxicity against human MDA-MB-231 cells assessed as cell growth inhibition by cell based assay; type: functional
A549 = experiment: Cytotoxicity against human A549 cells assessed as cell growth inhibition by cell based assay; type: functional
PSN1 = experiment: Cytotoxicity against human PSN1 cells assessed as cell growth inhibition by cell based assay; type: functional
HT-29 = experiment: Cytotoxicity against human HT-29 cells assessed as cell growth inhibition by cell based assay; type: functional
[7] = target: Receptor tyrosine-protein kinase erbB-2 (Homo sapiens, UniProt P04626); experiment: Inhibition of c-ErbB-2 (unknown origin)
Sequence of Receptor tyrosine-protein kinase erbB-2 (P04626 whole entry): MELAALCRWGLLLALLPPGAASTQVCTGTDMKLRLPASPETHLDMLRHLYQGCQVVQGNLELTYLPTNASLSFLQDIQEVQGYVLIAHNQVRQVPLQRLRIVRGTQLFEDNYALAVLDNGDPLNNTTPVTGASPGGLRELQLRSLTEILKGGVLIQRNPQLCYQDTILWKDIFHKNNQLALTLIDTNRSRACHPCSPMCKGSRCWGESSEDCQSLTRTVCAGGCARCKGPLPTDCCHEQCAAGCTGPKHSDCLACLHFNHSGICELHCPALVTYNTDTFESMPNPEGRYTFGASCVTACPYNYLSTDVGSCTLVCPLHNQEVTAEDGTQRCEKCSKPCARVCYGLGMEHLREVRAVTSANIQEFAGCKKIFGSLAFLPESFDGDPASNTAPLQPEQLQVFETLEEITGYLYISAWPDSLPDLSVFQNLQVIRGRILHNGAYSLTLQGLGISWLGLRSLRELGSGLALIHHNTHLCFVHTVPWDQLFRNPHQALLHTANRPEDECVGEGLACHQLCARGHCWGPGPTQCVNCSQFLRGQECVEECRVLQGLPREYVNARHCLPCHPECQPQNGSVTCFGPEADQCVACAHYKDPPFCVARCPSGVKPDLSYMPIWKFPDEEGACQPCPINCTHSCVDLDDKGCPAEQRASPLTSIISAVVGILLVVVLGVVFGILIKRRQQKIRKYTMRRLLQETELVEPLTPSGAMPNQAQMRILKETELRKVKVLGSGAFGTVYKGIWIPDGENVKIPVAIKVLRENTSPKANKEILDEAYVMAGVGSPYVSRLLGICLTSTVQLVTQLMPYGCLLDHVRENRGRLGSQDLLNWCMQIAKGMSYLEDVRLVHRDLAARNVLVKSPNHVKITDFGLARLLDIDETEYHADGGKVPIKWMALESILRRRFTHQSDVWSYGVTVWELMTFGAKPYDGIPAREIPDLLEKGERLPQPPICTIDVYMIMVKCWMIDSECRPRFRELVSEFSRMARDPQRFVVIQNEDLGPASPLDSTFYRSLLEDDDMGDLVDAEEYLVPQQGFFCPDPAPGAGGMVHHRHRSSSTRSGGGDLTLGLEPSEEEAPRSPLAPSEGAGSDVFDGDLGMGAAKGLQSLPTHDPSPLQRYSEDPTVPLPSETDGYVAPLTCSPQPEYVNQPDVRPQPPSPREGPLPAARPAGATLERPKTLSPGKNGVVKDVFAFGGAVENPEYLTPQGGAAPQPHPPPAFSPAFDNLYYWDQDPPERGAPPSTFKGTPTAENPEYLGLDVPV

[8] = target: Epidermal growth factor receptor (Homo sapiens, UniProt P00533); experiment: Inhibition of EGFR (unknown origin)
Sequence of Epidermal growth factor receptor (P00533 whole entry): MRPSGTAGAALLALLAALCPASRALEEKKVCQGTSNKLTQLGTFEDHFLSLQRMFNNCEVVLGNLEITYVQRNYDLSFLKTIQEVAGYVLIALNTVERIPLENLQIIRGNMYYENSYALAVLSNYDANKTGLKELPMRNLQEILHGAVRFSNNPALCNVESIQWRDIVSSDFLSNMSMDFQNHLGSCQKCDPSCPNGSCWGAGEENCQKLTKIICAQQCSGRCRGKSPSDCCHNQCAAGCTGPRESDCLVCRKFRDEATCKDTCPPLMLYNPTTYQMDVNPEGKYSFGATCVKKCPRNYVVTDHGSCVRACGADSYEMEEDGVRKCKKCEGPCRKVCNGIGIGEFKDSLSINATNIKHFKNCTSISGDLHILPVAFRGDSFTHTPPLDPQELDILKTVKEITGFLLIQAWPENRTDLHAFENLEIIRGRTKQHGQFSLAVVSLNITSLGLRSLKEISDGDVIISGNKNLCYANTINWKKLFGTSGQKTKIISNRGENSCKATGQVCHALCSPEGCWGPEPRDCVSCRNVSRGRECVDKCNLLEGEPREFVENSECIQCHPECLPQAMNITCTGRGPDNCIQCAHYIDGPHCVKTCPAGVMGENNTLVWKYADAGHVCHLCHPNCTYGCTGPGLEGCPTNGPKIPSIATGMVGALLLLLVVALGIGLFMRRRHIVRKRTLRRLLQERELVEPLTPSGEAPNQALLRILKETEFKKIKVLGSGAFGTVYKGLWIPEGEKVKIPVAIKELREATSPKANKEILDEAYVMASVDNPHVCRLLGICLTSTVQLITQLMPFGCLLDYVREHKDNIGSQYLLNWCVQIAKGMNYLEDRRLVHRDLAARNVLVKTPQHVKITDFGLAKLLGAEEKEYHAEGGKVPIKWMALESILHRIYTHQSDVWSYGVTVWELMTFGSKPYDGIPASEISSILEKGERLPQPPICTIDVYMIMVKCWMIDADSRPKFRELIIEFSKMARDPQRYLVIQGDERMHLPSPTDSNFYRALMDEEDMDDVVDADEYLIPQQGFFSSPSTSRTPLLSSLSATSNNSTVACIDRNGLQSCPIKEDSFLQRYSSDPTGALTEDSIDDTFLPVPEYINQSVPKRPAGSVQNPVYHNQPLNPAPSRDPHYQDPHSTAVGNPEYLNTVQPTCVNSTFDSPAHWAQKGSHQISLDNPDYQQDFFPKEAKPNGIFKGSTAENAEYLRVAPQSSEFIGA

MONO-MAC-6 = experiment: Cytotoxicity against human MONO-MAC-6 cells incubated for 48 hrs by [3H]-thymidine incorporation based liquid scintillation counter analysis; type: functional, cell-based
PC-9 = experiment: Cytotoxicity against human PC-9 cells incubated for 48 hrs by MTT assay; type: functional, cell-based; conditions: PC-9, 48 h
U-937 = experiment: Cytotoxicity against human U-937 cells incubated for 48 hrs by MTT assay; type: functional, cell-based; conditions: U-937, 48 h
[9] = Inhibition of recombinant human MAPK expressed in Escherichia coli assessed as reduction in MEK-1 phosphorylation incubated for 60 mins by ELISA assay
LoVo = experiment: Inhibition of cell growth in human LoVo cells by SRB assay; type: functional, cell-based
Jurkat = experiment: Antiinflammatory activity in PMA induced human Jurkat cells assessed as inhibition of IL-2 production by EIA assay; type: functional, cell-based
THP-1 = experiment: Antiinflammatory activity in LPS induced human THP-1 cells assessed as inhibition of TNF-alpha production by EIA assay; type: functional, cell-based

Structure (SMILES): NC1=N[C@]23[C@H](N1)c1[nH]c(Br)c(Br)c1C(=O)N2C[C@H](O)[C@H]3O
- pIC50 (P388): 4.11

Structure (SMILES): Cn1c(C(=O)NNC(=S)Nc2ccccc2F)cc(Br)c1Br
- pIC50 (MCF7): 8.00
- pIC50 (WRL68): 8.00
- pIC50 (Caco-2): 8.00

- pIC50 [1]: 7.52
- pIC50 [2]: 6.80
Structure (SMILES): N=C1NC(=O)C(=C2CCNC(=O)c3[nH]c(Br)cc32)N1
- pIC50 (SW-620): 5.51
- pIC50 (KB 3-1): 5.70

Structure (SMILES): N=C1N=C(NCCS(=O)(=O)O)C(O)(/C=C/CNC(=O)c2cc(Br)c(Br)[nH]2)N1 (stereo unspecified)
- pIC50 (KB): 4.68
- pIC50 (K562 [3]): 4.68

Structure (SMILES): NC1NC2c3c([nH]c(Br)c3Br)C(=O)N3C[C@H](Cl)[C@H](O)C23N1 (stereo partly specified)
- pIC50 (L1210): 5.25

- pIC50 [4]: 4.74
Structure (SMILES): Cn1cc(Br)cc1C(=O)NC[C@H]1CC2N=C(N)NC2[C@@H](c2c[nH]c(N)n2)[C@@H]1CNC(=O)c1cc(Br)c(Br)[nH]1 (stereo partly specified)

- pIC50 [4]: 4.74
Structure (SMILES): Cn1cccc1C(=O)NC[C@H]1CC2N=C(N)NC2[C@@H](c2c[nH]c(N)n2)[C@@H]1CNC(=O)c1cc(Br)c(Br)n1C (stereo partly specified)

Structure (SMILES): O=C1NC(=O)/C(=C/CCNC(=O)c2[nH]cc(Br)c2Br)N1
- pIC50 (K562 [5]): 5.21
- pIC50 (L02): 4.91

- pIC50 [6]: 5.66
- pIC50 (VIP peptides): 4.72
Structure (SMILES): NC1=NC2C[C@H](CNC(=O)c3cc(Br)c[nH]3)[C@@H](CNC(=O)c3cc(Br)c[nH]3)[C@H](c3nc(N)c[nH]3)C2N1 (stereo partly specified)

Structure (SMILES): COc1cc(NC(=S)NNC(=O)c2cc(Br)c(Br)n2C)cc(OC)c1OC
- pIC50 (MCF7): 7.52
- pIC50 (WRL68): 7.52
- pIC50 (Caco-2): 7.52

- pIC50 [4]: 4.74
Structure (SMILES): Cn1c(C(=O)NC[C@H]2CC3N=C(N)NC3[C@@H](c3c[nH]c(N)n3)[C@@H]2CNC(=O)c2cc(Br)c[nH]2)cc(Br)c1Br (stereo partly specified)

- pIC50 [4]: 4.74
Structure (SMILES): Cn1cc(Br)cc1C(=O)NC[C@@H]1[C@@H](CNC(=O)c2ccc(Br)[nH]2)CC2N=C(N)NC2[C@H]1c1c[nH]c(N)n1 (stereo partly specified)

Structure (SMILES): CC[C@H](C)[C@H](NC(=O)c1c(Br)c(Br)c(Br)n1C)C(=O)N(C)[C@@H](CC(C)C)C(=O)N1CCC[C@H]1C(=O)N[C@@H](CCC(N)=O)C(=O)O (X1-I[NMeL]PQ-OH)
- GI50 (MDA-MB-231): > 12 µM
- GI50 (A549): > 12 µM
- GI50 (PSN1): > 12 µM
- GI50 (HT-29): > 12 µM

- pIC50 [7]: 4.42
Structure (SMILES): N=C1N=C(NCCS(=O)(=O)O)/C(=C/C(O)CNC(=O)c2cc(Br)c[nH]2)N1 (mixture of isomers)

- pIC50 [8]: 4.35
- pIC50 [7]: 4.42
Structure (SMILES): N=C1N=C(NCCS(=O)(=O)O)/C(=C/C(O)CNC(=O)c2cc(Br)c(Br)[nH]2)N1 (mixture of isomers) [TAUROACIDIN A]

Structure (SMILES): COC(=O)CC1CNC(=O)c2cc(Br)c(Br)n21 (racemic)
- pEC50 (P388; read-out: ED50 (the source's name)): 4.09

Structure (SMILES): NC1=N/C(=C2/CCNC(=O)c3[nH]ccc32)C(=O)N1 [DEBROMOHYMENIALDISINE]
- pIC50 (MONO-MAC-6): 5.01

Structure (SMILES): COc1cccc2c1C(=O)c1c(O)c3c(c(O)c1C2=O)C[C@@](O)(C(=O)CO)C[C@@H]3O[C@H]1C[C@H](N)[C@H](O)[C@H](C)O1 [DOXORUBICIN]
- pIC50 (PC-9): 6.66
- pIC50 (U-937): 7.30

- pIC50 [9]: 8.22
- pIC50 (LoVo): 8.22
- pIC50 (Jurkat): 5.40
Structure (SMILES): NC1=NC(=O)/C(=C2\CCNC(=O)c3[nH]c(Br)cc32)N1 [HYMENIALDISINE]
- pIC50 (MONO-MAC-6): 6.21

Structure (SMILES): S=C(S)N1CCCC1 [PYRROLIDINE DITHIOCARBAMATE]
- pIC50 (Jurkat): 5.29
- pIC50 (THP-1): 5.21

- pIC50 [6]: 6.57
- pIC50 (VIP peptides): 4.70
Structure (SMILES): Nc1nc([C@H]2[C@H](CNC(=O)c3cc(Br)c[nH]3)[C@@H](CNC(=O)c3cc(Br)c[nH]3)[C@@H]2c2c[nH]c(N)n2)c[nH]1 [SCEPTRIN]
